{
  "source": "patent US8779141B2",
  "about": "“Viral inhibitors” (Gilead Sciences, Inc., priority 2002, dated 2014)",
  "key": {"BVDV-1 (strain PE515)": {"test_system": "BVDV-1 (strain PE515)", "assay": "Anti-BVDV assay, virus-induced cytopathic effect in MDBK cells (MTS)", "assay_type": "cell-based, Bovine Viral Diarrhea Virus", "conditions": "reduction of virus induced cytopathic effect in MDBK cells by 50%", "description": "(§1) Madin-Darbey Bovine Kidney (MDBK) cells were maintained in Dulbecco's modified Eagle medium (DMEM) supplemented with BVDV-free 5% fetal calf serum (DMEME-FCS) at 37° C. in a humidified, 5% CO2 atmosphere. BVDV-1 (strain PE515) was used to assess the antiviral activity in MDBK cells. Vero cells were maintained in the same way as MDBK cells. Vero cells were infected with Coxsackie B3 virus (strain Nancy).\nNinety-six-well cell culture plates were seeded with MDBK cells in DMEM-FCS so that cells reached 24 hr later confluency. Then medium was removed and serial 5-fold dilutions of the test compounds were added in a total volume of 100 ul, after which the virus inoculum (100 ul) was added to each well. […] Uninfected cells and cells receiving virus without compound were included in each assay plate. After 5 days, medium was removed and 90 μl of DMEM-FCS and 10 ul of MTS/PMS solution (Promega) was added to each well. Following a 2 hr incubation period at 37° C. the optical density of the wells was read at 498 nm in a microplate reader."}, "[1]": {"assay": "Cytostatic effect on exponentially growing MDBK cells (MTS)", "assay_type": "cell-based, Bovine", "conditions": "bovine; Table 9; reduction of growth of exponentially growing MDBK cells by 50%; mean of 2-5 determinations", "description": "(§2) Madin-Darbey Bovine Kidney (MDBK) cells were maintained in Dulbecco's modified Eagle medium (DMEM) supplemented with BVDV-free 5% fetal calf serum ([…]) at 37° C. in a humidified, 5% CO2 atmosphere. […] Vero cells were maintained in the same way as MDBK cells. […] The effect of the drugs on exponentially growing MDBK cells was assessed as follows. Cells were seeded at a density of 5000 cell/well in 96 well plates in MEM medium (Gibco) supplemented with 10% fetal calf serum, 2 mM L-glutamine (Life Technologies) and bicarbonate (Life Technologies). […] Cultures were then again further incubated for 3 days after which the effect on cell growth was quantified by means of the MTS method (Promega)."}, "[2]": {"test_system": "Coxsackie B3 virus (strain Nancy)", "assay": "Anti-coxsackie virus assay, cytopathic effect in Vero cells (MTS)", "assay_type": "cell-based", "conditions": "Enterovirus B, Table 13, reduction of virus (CBV-3 Nancy strain)-induced cytopathic effect in Vero cells by 50%", "description": "as §1\n(§3) Ninety-six-well cell culture plates were seeded with Vero cells in DMEM medium containing 10 fetal calf serum (FCS) so that cells reached confluency 24-48 hr later. Medium was then removed and serial 5-fold dilutions of the test compounds were added in a total volume of 100 ul, after which the virus inoculum (100 μl) was added to each well. […] Uninfected cells and cells receiving virus without compound were included in each asay plate. After 5 days, the medium was removed and 90 μl of DMEM-FCS and 10 μl of MTS/PMS solution (Promega) was added to each well. Following a 2 hr incubation period at 37° C., the optical density of the wells was read at 498 nm in a microplate reader. The 50% effective concentration (EC50) value was defined as the concentration of compound that protects 50% of the cell monolayer from virus-induced cytopathic effect."}, "Vero cells": {"test_system": "Vero cells", "assay": "Metabolism of confluent Vero cells (MTS)", "assay_type": "cell-based", "conditions": "Table 13; reduction of metabolism of confluent Vero cells by 50%, MTS method", "description": "as §1, §3"}, "MDBK cells": {"test_system": "MDBK cells", "assay": "Cytostatic effect on exponentially growing MDBK cells (MTS)", "assay_type": "cell-based, Bovine", "conditions": "for MTC: Table 10, mean toxic concentration, reduces growth of exponentially growing MDBK cells by 50%", "description": "as §2"}, "[3]": {"test_system": "HCV replicon in Huh-5-2 cells", "assay": "Anti-HCV replicon assay, luciferase activity in Huh-5-2 cells", "assay_type": "cell-based", "conditions": "Hepatitis C virus, Table 11, inhibition of luciferase activity in the replicon system by 50%", "description": "(§4) Cells were seeded at a density of 7000 cells per well in 96 well View Plate™ (Packard) in medium containing the same components as described above, except for G418. Cells were allowed to adhere and proliferate for 24 hr. At that time, culture medium was removed and serial dilutions of the test compounds were added in culture medium lacking G418. Interferon alfa 2a (500 IU) was included as a positive control. Plates were further incubated at 37° C. and 5% CO2 for 72 hours. Replication of the HCV replicon in Huh-5 cells results in luciferase activity in the cells. Luciferase activity is measured by adding 50 μl of 1× Glo-lysis buffer (Promega) for 15 minutes followed by 50 ul of the Steady-Glo Luciferase assay reagent (Promega). Luciferase activity is measured with a luminometer and the signal in each individual well is expressed as a percentage of the untreated cultures. […] Instead the density of the culture is measured by means of the MTS method (Promega)."}, "[4]": {"assay": "Proliferation of exponentially growing Huh-5-2 cells (MTS)", "assay_type": "cell-based", "conditions": "human, exponentially growing Huh-5-2 cells (HCV replicon cell line); Table 11; inhibition of proliferation of exponentially growing Huh-5-2 cells by 50%", "description": "as §4"}, "[5]": {"test_system": "HCV replicon (RNA) synthesis in Huh-5-2 cells", "assay": "Quantitative analysis of HCV replicon RNA by Taqman real-time RT-PCR in Huh-5-2 cells", "assay_type": "cell-based, Hepatitis C Virus", "conditions": "for Delta CT: higher value = more profound inhibition of viral RNA synthesis; for CT: real-time RT-PCR, untreated 28.86 ± 0.04", "description": "Replicon cells were plated at 7.5×10^3 cells per well in a 96-well plate plates at 37° C. and 5% CO2 in Dulbecco's modified essential medium containing 10% fetal calf serum, 1% nonessential amino acids and 1 mg/ml Geneticin. After allowing 24 h for cell attachment, different dilutions of compound were added to the cultures. Plates were incubated for 5 days, at which time RNA was extracted using the Qiamp Rneazyi Kit (Qiagen, Hilden, Germany). […] After initial activation of uracil-N-glycosylase at 50° C. for 2 minutes, RT was performed at 60° C. for 30 minutes, followed by inactivation of uracil-N-glycosylase at 95° C. for 5 minutes. Subsequent PCR amplification consisted of 40 cycles of denaturation at 94° C. for 20 seconds and annealing and extension at 62° C. for 1 minute in an ABI 7700 sequence detector. For each PCR run, negative template and positive template samples were used. The cycle threshold value (Ct-value) is defined as the number of PCR cycles for which the signal exceeds the baseline, which defines a positive value. The sample was considered to be positive if the Ct-value was <50. Results are expressed as genomic equivalents (GE)."}, "BVDV (strain NADL)": {"test_system": "BVDV (strain NADL)", "assay_type": "cell-based, Bovine Viral Diarrhea Virus", "conditions": "GPJN22-resistant BVDV (F224S)", "description": "Wild type BVDV (strain NADL) was twice plaque purified on MDBK cells. The entire coding region of the genome of this virus was sequenced. This plaque purified and sequenced virus was then cultured in the presence of increasing drug concentrations of compound (GPJN22). Following 12 passages, the virus was at least 25 fold resistant to compound GPJN22. The resistant virus preparation was again plaque purified. The entire coding region of the genome of this virus was sequenced. A mutation F224S in the RNA dependent RNA polymerase gene of the virus was detected in 4 out of 4 clones of this virus; no other mutations were detected in the resistant viruses. The GPJN22-resistant virus was cross-resistant with VP32947 (see Table 8). VP32947 is an earlier reported selective inhibitor of BVDV replication [Baginski S G et al., Proc Natl Acad Sci USA. 2000 Jul. 5; 97(14):7981-6]. In VP32947-resistant BVDV, a similar mutation was identified as being responsible for the drug-resistance. To confirm that the F224S mutation is indeed responsible for the resistant phenotype, the mutation was reintroduced by site-directed mutagenesis in an full-length infectious clone of the BVDV (strain NADL) [Vassilev et al., J. Virol. 1997 January; 71(1):471-8.]."}, "[6]": {"conditions": "Bovine viral diarrhea virus isolates and strains, Table 9, BVDV strain PE515, mean of 2-5 determinations, read-out: EC50"}, "[7]": {"conditions": "Bovine viral diarrhea virus isolates and strains, Table 10, read-out: EC50"}},
  "note": "Like-named read-outs stand apart in the source and are kept apart here.",
  "data": [
    {"molecule": "Fc1cccc(F)c1Cn1ccc2nc(-c3c(F)cccc3F)nc-2c1", "note": "[GPRTI-8, 2-(2,6-Difluorophenyl)-5-[(2,6-difluorophenyl)methyl]-5H-imidazo[4,5-c]pyridine]", "values": [
      {"measurement": "EC50", "setting": "BVDV-1 (strain PE515); [6]", "result": 0.137, "unit": "µg/mL"},
      {"measurement": "CC50 at 3 days", "setting": "[1]", "result": "> 79", "unit": "µg/mL"},
      {"measurement": "EC50", "setting": "[2]", "result": 12.2, "unit": "µg/mL"},
      {"measurement": "TC50", "setting": "Vero cells", "result": ">100", "unit": "µg/mL"},
      {"measurement": "melting point", "result": "195 to 197", "unit": "°C"}
    ]},
    {"molecule": "Fc1ccccc1-c1nc2ccn(Cc3ccc(Cl)cc3)cc-2n1", "note": "[GPJN-112, 5-[(4-Chlorophenyl)methyl]-2-(2-fluorophenyl)-5H-imidazo[4,5-c]pyridine]", "values": [
      {"measurement": "EC50", "setting": "BVDV-1 (strain PE515); [7]", "result": 0.0049, "unit": "µg/mL"},
      {"measurement": "MTC", "setting": "MDBK cells", "result": 20, "unit": "µg/mL"},
      {"measurement": "EC50", "setting": "[3]", "result": 0.29, "unit": "µg/mL"},
      {"measurement": "CC50 at 72 hours", "setting": "[4]", "result": "> 17", "unit": "µg/mL"}
    ]},
    {"molecule": "Fc1ccccc1-c1nc2ccn(Cc3ccc(I)cc3)cc-2n1", "note": "[GPJN-113, 2-(2-Fluorophenyl)-5-[(4-iodophenyl)methyl]-5H-imidazo[4,5-c]pyridine]", "values": [
      {"measurement": "EC50", "setting": "BVDV-1 (strain PE515); [7]", "result": 0.0031, "unit": "µg/mL"},
      {"measurement": "MTC", "setting": "MDBK cells", "result": 20, "unit": "µg/mL"},
      {"measurement": "EC50", "setting": "[3]", "result": 0.17, "unit": "µg/mL"},
      {"measurement": "CC50 at 72 hours", "setting": "[4]", "result": 14, "unit": "µg/mL"}
    ]},
    {"molecule": "Brc1ccc(Cn2ccc3nc(-c4ccccn4)nc-3c2)cc1", "note": "[GPJN-58, 5-[(4-Bromophenyl)methyl]-2-(2-pyridinyl)-5H-imidazo[4,5-c]pyridine]", "values": [
      {"measurement": "EC50", "setting": "BVDV-1 (strain PE515); [6]", "result": 0.052, "unit": "µg/mL"},
      {"measurement": "CC50 at 3 days", "setting": "[1]", "result": 8.1, "unit": "µg/mL"},
      {"measurement": "EC50", "setting": "[3]", "result": 0.13, "unit": "µg/mL"},
      {"measurement": "CC50 at 72 hours", "setting": "[4]", "result": 2, "unit": "µg/mL"},
      {"measurement": "Delta CT", "setting": "[5]; 0.0016 ug/ml", "result": 0.05},
      {"measurement": "CT", "setting": "[5]; 0.0016 ug/ml", "result": 28.91},
      {"measurement": "Delta CT", "setting": "[5]; 0.008 ug/ml", "result": 0.89},
      {"measurement": "CT", "setting": "[5]; 0.008 ug/ml", "result": 29.75},
      {"measurement": "Delta CT", "setting": "[5]; 0.04 ug/ml", "result": 1.03},
      {"measurement": "CT", "setting": "[5]; 0.04 ug/ml", "result": 29.89},
      {"measurement": "Delta CT", "setting": "[5]; 0.2 ug/ml", "result": 1.14},
      {"measurement": "CT", "setting": "[5]; 0.2 ug/ml", "result": 30.00},
      {"measurement": "Delta CT", "setting": "[5]; 1 ug/ml", "result": 4},
      {"measurement": "CT", "setting": "[5]; 1 ug/ml", "result": 32.86}
    ]},
    {"molecule": "CCCN(CCC)CCSc1nnc2c(n1)[nH]c1ccccc12", "note": "[VP32947, 3-[((2-dipropylamino)ethyl)thio]-5H-1,2,4-triazino[5,6-b]indole, reference compound]", "values": [
      {"measurement": "EC50", "setting": "BVDV-1 (strain PE515); Table 9, BVDV strain PE515, mean of 2-5 determinations", "result": 0.003, "unit": "µg/mL"},
      {"measurement": "CC50", "setting": "MDBK cells; Table 9, reduction of growth of exponentially growing MDBK cells by 50%, mean of 2-5 determinations", "result": 47, "unit": "µg/mL"},
      {"measurement": "cross-resistance of the GPJN22-resistant virus", "setting": "BVDV (strain NADL)", "result": "cross-resistant"}
    ]}
  ]
}
